Data: patent US20070172957A1, “Methods of identifying anti-inflammatory macrolides” (TAISHO PHARMACEUTICAL CO., LTD., priority 2004, published 2007)

Test system: A549 cells
Experiment: A549 microarray comparing macrolides with arachidonic acid pathway inhibitors, with IL-1β stimulation (Appendix C, Tables 6-9), and correlation analysis
Assay type: cell-based
Conditions: for Total # Differential Genes (95% confidence): A549, IL1 vs IL1 + drug, threshold 1.3, macrolides 50 μM (FMA 10 μM), triacsin C 15 μM, indomethacin and dexamethasone 100 nM; for FADS1 expression: microarray
Description: One inhibitor, triacsin C, acts on AA biosynthesis by inhibiting arachidonyl CoA synthetases, blocking the incorporation of free AA into phospholipids. Triacsin C is reasonably specific for AA compared to other fatty acids. However, triacsin C structurally resembles AA so it also may interfere with other steps in the AA pathway. Indomethacin is an inhibitor of COX1 and COX2 enzyme activities and therefore specifically blocks metabolism of AA into prostaglandins. […] It inhibits transcription of PLA2, and transcriptionally and post-transcriptionally regulates COX1 and COX2 activities. Dexamethasone has additional effects unrelated to AA through binding with the glucocorticoid receptor to glucocortcoid response elements.
A549 cells were pre-incubated overnight (17 hours) with macrolides (10 μM FMA-9045, 50 μM clarithromycin, 50 μM roxithromycin, 50 μM josamycin) and 15 μM triacsin C, and pre-incubated 2 hours with 100 nM indomethacin and 100 nM dexamethasone. All cells then were stimulated for 4 hours with IL-1β, because the activation of PLA2 and downstream signaling events generally requires an inflammatory stimulus. The various treatment conditions are shown below in Table 4. Following macrolide and inhibitor pre-treatment and IL-1 stimulation, the cells were lysed, total RNA was collected, and the poly-A+ mRNA fraction was purified. The resulting microarray data (Appendix C) were analyzed using the methods described in the Examples above.
The tables in Appendix C represent the effects of the arachidonic acid pathway inhibitors (“AA pathway inhibitors”) and the effects of the macrolides (“IL1+macrolide effects”). […] In both tables in Appendix C, the genes that meet this criterion (≧1.3 min fold change) are indicated in bold.
Quantitative analysis was done to determine how well the responses to the different AA pathway inhibitors correlated. The correlation values were assigned a p-value to provide statistical confidence to the correlation value. Correlation between experiments, across all spots showing good detection, was assessed by cosine vector angle to generate the data shown in Tables 7-9. A correlation coefficient close to one indicates strong correlation, whereas a value near zero indicates no correlation. P-values for each correlation coefficient were estimated based on a Fisher permutation test. In this test, each spot's expression ratios were randomly re-ordered across experiments and the degree of correlation between experiments was then reassessed. This was done repeatedly.

[1] = A549 cells, +IL1b +/- inhibitor

## C[C@@H]1C[C@H]2[C@@H]3CCC4=CC(=O)C=C[C@]4(C)[C@@]3(F)[C@@H](O)C[C@]2(C)[C@@]1(O)C(=O)CO [Dexa]
[1]
  wtd means, SpotID 46796 STC1 (stanniocalcin 1): 1.41
  wtd means, SpotID 46950 SERPINA3 (serine (or cysteine) proteinase inhibitor, clade A, member 3): 1.39
  wtd means, SpotID 46985 RIPK2 (RIP2, RICK; receptor-interacting serine-threonine kinase 2): 1.83
  wtd means, SpotID 47155 TNFAIP6 (tumor necrosis factor, alpha-induced protein 6): 1.27
  wtd means, SpotID 47166 SERPINA6 (serine (or cysteine) proteinase inhibitor, clade A, member 6): 1.33
  wtd means, SpotID 47444 TKT (transketolase (Wernicke-Korsakoff syndrome)): 0.83
  wtd means, SpotID 47569 STAT3 (signal transducer and activator of transcription 3): 1.42
  wtd means, SpotID 47698 PTPRJ (protein tyrosine phosphatase, receptor type, J): 1.38
  wtd means, SpotID 47987 THBS1 (thrombospondin 1): 0.66
  wtd means, SpotID 48234 PTPRZ1 (PTP zeta; protein tyrosine phosphatase, receptor-type, Z polypeptide 1): 1.00
  wtd means, SpotID 48239 TLN1 (talin 1): 1.53
  wtd means, SpotID 48288 TRAF5 (TNF receptor-associated factor 5): 1.42
  wtd means, SpotID 48359 RIPK1 (receptor (TNFRSF)-interacting serine-threonine kinase 1): 1.61
  wtd means, SpotID 48392 RIPK1 (receptor (TNFRSF)-interacting serine-threonine kinase 1): 1.62
  wtd means, SpotID 48395 TNFRSF7 (CD27; tumor necrosis factor receptor superfamily, member 7): 1.53
  wtd means, SpotID 48485 UCP1 (uncoupling protein 1 (mitochondrial, proton carrier)): 1.00
  wtd means, SpotID 48500 RPL13A (ribosomal protein L13a): 1.65
  wtd means, SpotID 48603 TEAD4 (TEA domain family member 4): 1.67
  wtd means, SpotID 49330 TNFRSF7 (CD27; tumor necrosis factor receptor superfamily, member 7): 1.76
  wtd means, SpotID 49899 WWOX (WW domain containing oxidoreductase): 0.76
  wtd means, SpotID 49901 TROAP (trophinin associated protein (tastin)): 0.84
  wtd means, SpotID 50379 TNFRSF6 (FAS; tumor necrosis factor receptor superfamily, member 6): 1.40
  wtd means, SpotID 50428 RPLP0 (ribosomal protein, large, P0): 0.73
  wtd means, SpotID 50491 TNFRSF6B (DcR3; tumor necrosis factor receptor superfamily, member 6b, decoy): 1.36

## C[C@@H]1C[C@H]2[C@@H]3CCC4=CC(=O)C=C[C@]4(C)[C@@]3(F)[C@@H](O)C[C@]2(C)[C@@]1(O)C(=O)CO [dexamethasone]
  Total # Differential Genes (95% confidence): 341

## COc1ccc2c(c1)c(CC(=O)O)c(C)n2C(=O)c1ccc(Cl)cc1 [indomethacin]
A549 + IL-1β, of the genes regulated by the labelled drug
  Number of differentially expressed genes also differential in response to triacsin C: 36
  Total # Differential Genes (95% confidence): 37
[1]
  min fold change, SpotID 46796 STC1 (stanniocalcin 1): 1.34
  min fold change, SpotID 46950 SERPINA3 (serine (or cysteine) proteinase inhibitor, clade A, member 3): 1.28
  min fold change, SpotID 46985 RIPK2 (RIP2, RICK; receptor-interacting serine-threonine kinase 2): 1.85
  min fold change, SpotID 47155 TNFAIP6 (tumor necrosis factor, alpha-induced protein 6): 1.17
  min fold change, SpotID 47166 SERPINA6 (serine (or cysteine) proteinase inhibitor, clade A, member 6): 1.05
  min fold change, SpotID 47193 STAT3 (signal transducer and activator of transcription 3): 1.25
  min fold change, SpotID 47332 SERPINB3 (serine (or cysteine) proteinase inhibitor, clade B (ovalbumin), member 3): 1.25
  min fold change, SpotID 47444 TKT (transketolase (Wernicke-Korsakoff syndrome)): 1.00
  min fold change, SpotID 47569 STAT3 (signal transducer and activator of transcription 3): 1.69
  min fold change, SpotID 47697 TNFRSF6B (DcR3; tumor necrosis factor receptor superfamily, member 6b, decoy): 1.52
  min fold change, SpotID 47698 PTPRJ (protein tyrosine phosphatase, receptor type, J): 1.31
  min fold change, SpotID 47987 THBS1 (thrombospondin 1): 1.32
  min fold change, SpotID 48050 RPS6KA2 (ribosomal protein S6 kinase, 90 kD, polypeptide 2): 1.00
  min fold change, SpotID 48234 PTPRZ1 (PTP zeta; protein tyrosine phosphatase, receptor-type, Z polypeptide 1): 1.48
  min fold change, SpotID 48239 TLN1 (talin 1): 1.51
  min fold change, SpotID 48288 TRAF5 (TNF receptor-associated factor 5): 1.40
  min fold change, SpotID 48359 RIPK1 (receptor (TNFRSF)-interacting serine-threonine kinase 1): 1.00
  min fold change, SpotID 48392 RIPK1 (receptor (TNFRSF)-interacting serine-threonine kinase 1): 1.00
  min fold change, SpotID 48395 TNFRSF7 (CD27; tumor necrosis factor receptor superfamily, member 7): 1.55
  min fold change, SpotID 48485 UCP1 (uncoupling protein 1 (mitochondrial, proton carrier)): 1.32
  min fold change, SpotID 48500 RPL13A (ribosomal protein L13a): 1.06
  min fold change, SpotID 48594 RPS6KA2 (ribosomal protein S6 kinase, 90 kD, polypeptide 2): 1.03
  min fold change, SpotID 48603 TEAD4 (TEA domain family member 4): 1.72
  min fold change, SpotID 49330 TNFRSF7 (CD27; tumor necrosis factor receptor superfamily, member 7): 1.44
  min fold change, SpotID 49899 WWOX (WW domain containing oxidoreductase): 1.00
  min fold change, SpotID 49901 TROAP (trophinin associated protein (tastin)): 1.01
  min fold change, SpotID 50379 TNFRSF6 (FAS; tumor necrosis factor receptor superfamily, member 6): 1.38
  min fold change, SpotID 50428 RPLP0 (ribosomal protein, large, P0): 1.00
  min fold change, SpotID 50491 TNFRSF6B (DcR3; tumor necrosis factor receptor superfamily, member 6b, decoy): 1.17
  wtd means, SpotID 46796 STC1 (stanniocalcin 1): 1.47
  wtd means, SpotID 46950 SERPINA3 (serine (or cysteine) proteinase inhibitor, clade A, member 3): 1.41
  wtd means, SpotID 46985 RIPK2 (RIP2, RICK; receptor-interacting serine-threonine kinase 2): 2.23
  wtd means, SpotID 47155 TNFAIP6 (tumor necrosis factor, alpha-induced protein 6): 1.23
  wtd means, SpotID 47166 SERPINA6 (serine (or cysteine) proteinase inhibitor, clade A, member 6): 1.66
  wtd means, SpotID 47193 STAT3 (signal transducer and activator of transcription 3): 1.64
  wtd means, SpotID 47332 SERPINB3 (serine (or cysteine) proteinase inhibitor, clade B (ovalbumin), member 3): 1.33
  wtd means, SpotID 47444 TKT (transketolase (Wernicke-Korsakoff syndrome)): 0.82
  wtd means, SpotID 47569 STAT3 (signal transducer and activator of transcription 3): 2.00
  wtd means, SpotID 47697 TNFRSF6B (DcR3; tumor necrosis factor receptor superfamily, member 6b, decoy): 1.84
  wtd means, SpotID 47698 PTPRJ (protein tyrosine phosphatase, receptor type, J): 1.38
  wtd means, SpotID 47987 THBS1 (thrombospondin 1): 0.68
  wtd means, SpotID 48234 PTPRZ1 (PTP zeta; protein tyrosine phosphatase, receptor-type, Z polypeptide 1): 1.77
  wtd means, SpotID 48239 TLN1 (talin 1): 1.57
  wtd means, SpotID 48288 TRAF5 (TNF receptor-associated factor 5): 1.96
  wtd means, SpotID 48359 RIPK1 (receptor (TNFRSF)-interacting serine-threonine kinase 1): 1.34
  wtd means, SpotID 48392 RIPK1 (receptor (TNFRSF)-interacting serine-threonine kinase 1): 1.35
  wtd means, SpotID 48395 TNFRSF7 (CD27; tumor necrosis factor receptor superfamily, member 7): 1.76
  wtd means, SpotID 48485 UCP1 (uncoupling protein 1 (mitochondrial, proton carrier)): 1.70
  wtd means, SpotID 48500 RPL13A (ribosomal protein L13a): 1.23
  wtd means, SpotID 48603 TEAD4 (TEA domain family member 4): 2.19
  wtd means, SpotID 49330 TNFRSF7 (CD27; tumor necrosis factor receptor superfamily, member 7): 1.90
  wtd means, SpotID 49899 WWOX (WW domain containing oxidoreductase): 1.07
  wtd means, SpotID 49901 TROAP (trophinin associated protein (tastin)): 0.93
  wtd means, SpotID 50379 TNFRSF6 (FAS; tumor necrosis factor receptor superfamily, member 6): 1.57
  wtd means, SpotID 50428 RPLP0 (ribosomal protein, large, P0): 0.77
  wtd means, SpotID 50491 TNFRSF6B (DcR3; tumor necrosis factor receptor superfamily, member 6b, decoy): 1.60
A549 cells
  FADS1 expression: not

## CCC/C=C/C/C=C/C=C/C=N/NN=O [triacsin C]
  Total # Differential Genes (95% confidence): 228
A549 cells
  FADS1 expression: induced
